Data published in publication PMC2825274 (PLoS ONE, 2010).
≈ marks a conversion by molar mass, not a printed value. Where “and” joins values, the source holds several entries; their conditions need not be identical. Identical values can stand only once.

Key:
Type in all cases: cell-based, influenza A virus
[1] = system: A/Hawaii/21/07 (H1N1) H274Y (HI H274Y)
[2] = system: influenza A/California/10/09 (H1N1) (CA10), S31N amantadine-resistant
[3] = system: A/Mississippi/3/01 (H1N1) H274Y (MS H274Y) oseltamivir-resistant
[4] = system: A/New Caledonia/20/99 (H1N1) V27A (NC V27A)
[5] = system: A/Wisconsin/67/05 (H3N2) S31N (WI S31N)

Oseltamivir carboxylate
Fold Reduction in EC50 Compared to (B) [1]: 3.3 | Fold Reduction in EC50 Compared to (C) [1]: 4.2 | antiviral activity as a single agent [1]: no antiviral activity | contribution to the total synergy of the TCAD regimen [1]: 83% | fold reduction in susceptibility [1]: 300 fold | oseltamivir carboxylate concentration from which it contributed to the synergy of the TCAD regimen [1]: ≥ 0.32 µg/mL | Fold Reduction in EC50 Compared to (B) [2]: 6.5 | Fold Reduction in EC50 Compared to (C) [2]: 6.5 | EC50 [3]: 73 µg/mL | Fold Reduction in EC50 Compared to (A) [3]: 21 | Fold Reduction in EC50 Compared to (B) [3]: >29 | Fold Reduction in EC50 Compared to (C) [3]: >29 | antiviral activity as a single agent [3]: no antiviral activity | contribution to the total synergy of the TCAD regimen [3]: 76% | fold reduction in susceptibility [3]: 1480 fold | oseltamivir carboxylate concentration from which it contributed to the synergy of the TCAD regimen [3]: ≥ 0.1 µg/mL

NC12CC3CC(CC(C3)C1)C2 [Amantadine]
activity as a single agent [4]: no activity | amantadine concentration at which the increase in synergy of the TCAD regimen was observed [4]: 0.32 µg/mL | Fold Reduction in EC50 Compared to (A) [2]: 1.8 and 2.0 and 3.2 | Fold Reduction in EC50 Compared to (B) [2]: 1.7 | Fold Reduction in EC50 Compared to (C) [2]: 1.6 | amantadine concentration with significant contribution to the synergy of the TCAD regimen [2]: ≥ 0.32 µg/mL | contribution to the total synergy of the TCAD regimen [2]: 44% | EC50 [3]: 0.060 µg/mL (≈ 0.397 µM) | activity as a single agent [5]: no activity | amantadine concentration at which the increase in synergy of the TCAD regimen was observed [5]: 1 µg/mL

NC(=O)c1ncn([C@@H]2O[C@H](CO)[C@@H](O)[C@H]2O)n1 [Ribavirin]
Fold Reduction in EC50 Compared to (B) [2]: 1.5 | Fold Reduction in EC50 Compared to (C) [2]: 2.2 | EC50 [3]: 3.6 µg/mL (≈ 14.7 µM)
